Several values for one entry are separate records, joined by “and”; a condition that tells them apart may be missing. Equal entries are not always repeated. Where two headings read alike, the source gives them in different places.
Legend:
mice [1] = test: Collagen-epinephrine induced pulmonary thromboembolism in mice; format: in vivo; details: Table 2 summary; how long protection lasts
Description: To assess the antithrombotic efficacy of Compounds, mice were divided into vehicle, aspirin and Compounds treated groups, and each group included ten animals. […] Results have been reported as percentage protection, which represents protection against collagen and epinephrine induced thrombosis and expressed as: Percent Protection=(1-([…]-number of animals paralyzed/dead in test compound-treated group; Pcontrol-number of animals paralyzed/dead in vehicle treated group. Collagen Epinephrine Induced Pulmonary Thromboembolism (FIG. 1): […]

mice [2] = test: Tail bleeding time in mice; format: in vivo; details: for Bleeding Time in mice: Table 2 summary; for prolongation in bleeding time: 30 μM/kg, 1 hr p.o. dosing
Method: Bleeding time in mice was evaluated by the method of Dejana et al, (Dejana E, Callioni A, Quintana A, Gaetano G. Bleeding time in laboratory animals. II—A comparison of different assay conditions in rats. […] The time elapsed from the tip incision to the stoppage of bleeding was determined as the bleeding time. The preferred compounds, aspirin (30 mg/kg) or vehicle was given orally 60 min prior to the tail incision in a group of 5 mice each.

rats = test: FeCl3 induced carotid artery thrombosis in rats; format: in vivo; details: for time to occlude the carotid artery (TTO): compound 1 at the same dose as compound 6, aspirin at a very high dose
Method: Male SD rats were anesthetized by urethane (1.25 g/kg, i.p.). The carotid artery was carefully dissected and a pulsed Doppler Probe (DBF-120A-CPx, CBI-8000, Crystal Biotech, USA) was placed around it to record the blood flow velocity and patency of the blood vessels. The carotid artery thrombosis was induced by FeCl3 as follows: a square (1×1 mm) of Whatman Chromatography paper was immersed in 20% FeCl3 solution for 5 min and placed on the carotid artery as described earlier (Kurz K D, Main B W, Sandusky G E. Rat model of arterial thrombosis induced by ferric chloride. Thromb Res 1990; 60(4):269-80). Thrombosis was monitored as the reduction in carotid artery blood flow. The time at which the blood-flow velocity was decreased to zero was recorded as the total of occlusion (TTO) of the carotid artery. […] (Ferric Chloride induced thrombosis (FIG. 7))

in vivo = format: in vivo, rabbits; details: for AUC / Cmax / MRT / Tmax: 20 mg/kg
Method: In-vivo pharmacokinetic parameters were generated in male NZ rabbits at a dose of 20 mg/kg by oral route of administration. The blood samples were drawn at 0.25, 0.5, 0.75, 1, 1.5, 2, 4, 6, 8, 10, 12, 18 and 24 hr post dose, processed and analyzed by Liquid Chromatography-Mass Spectrometry (LC-MS). Plasma concentration at different time points were plotted to give Plasma Concentration Time Profile and the data was fitted non-compartmentally using Win NonLin 5.1 version software and the estimates of pharmacokinetic parameters were derived with SD mean values. Maximum plasma concentration (Cmax), time to achieve maximum plasma concentration (tmax).

hyperlipidemic hamsters = test: FeCl3 induced thrombosis in hyperlipidemic hamsters; format: in vivo; details: for time to occlusion (TTO): HCHF fed hamsters
Method: HCHF treated hamsters were anesthetized by urethane (1.25 g/kg, i.p.). The carotid artery was carefully dissected and a pulsed Doppler Probe (DBF-120A-CPx, CBI-8000, Crystal Biotech. USA) was placed around it to record the blood flow velocity and potency of the blood vessels. The carotid artery thrombosis was induced by FeCl3 as follows: a square (1×1 mm) of Whatman Chromatography paper was immersed in 30% FeCl3 solution for 5 min and placed on the carotid artery as described earlier (Kurz K D, Main B W, Sandusky G E. Rat model of arterial thrombosis induced by ferric chloride. Thromb Res 1990; 60(4):269-80). Thrombosis was monitored as the reduction in carotid artery blood flow. The time at which the blood-flow velocity was decreased to zero was recorded as the total of occlusion of the vessel.

mouse platelets = test: Platelet adhesion over collagen matrix (mice, ex vivo); format: in vivo; details: oral route, compound 6 10, 30, 100 μM/kg, aspirin 100 μM/kg
Description: FIG. 4b: Adhesion of mouse platelets on collagen matrix as observed under fluorescence microscope 40× (ex vivo method). Different pictures show the different treatment performed. Washed murine platelets (2×10^6/ml) were obtained from animals pretreated with the compound (compound 6) (different doses) and seeded on BSA or Collagen (fibrillar) coated cover slips (A, B). Platelets from untreated animals were allowed to adhere on uncoated and BSA coated cover slip respectively to delineate the possibility of non specific binding. C, D. control platelets were adhered on collagen coated cover slip (control). E. F&G. Platelets obtained from animals pre-treated with compound 6 (10 μM/kg, 30 μM/kg & 100 μM/kg) respectively were adhered on collagen coated cover slip. H, I. Platelets from Aspirin (100 μM/kg) & Clopidogrel treated (100 μM/kg) animals resp. (standard Drugs) and adhered on collagen coated cover slip (n=5, 5 animals/group/experiment).

[3] = tested on: mice platelet rich plasma; test: Platelet aggregation (mice, ex vivo) induced by collagen; format: in vivo; details: oral route
Method: (§1) The reaction was allowed to proceed for at least 5 min, and the extent of aggregation was expressed in light-transmission units (Ivandic B T, Schlick P, Starltz P, Kurz K, Katas H A, Giannitsis E. Determination of clopidogrel resistance by whole blood platelet aggregometry and inhibitors of the P2Y12 receptor. Clinical Chemistry 2006: 52:383-88).

[4] = tested on: human platelet rich plasma (Ristocetin, GP 1b specific agonist); test: Ristocetin induced platelet aggregation, human platelet rich plasma (in vitro); format: cell-based; details: 1.5 mg/ml Ristocetin
Method: as §1
The percentage of aggregation was calculated by using following formula: Percent Aggregation=A/B×100 Where, A is the number of division traversed by the label on chart in the presence of Inducer & B is the total number of divisions (80). Platelet Aggregation Studies (FIG. 3) a) Platelet Aggregation (Human, In Vitro) (FIG. 3a (i) (ii) (iii))

human platelets = test: Intracellular calcium mobilization in Fura-2 loaded platelets stimulated by collagen; format: cell-based; details: Fura-2 loaded human platelets, collagen 5 μg/ml
Method: Ca^+2 concentration ([Ca^+2]i) were monitored by Fura-2AM fluorescence in the platelets (Fowler C J. Tiger G Calibration of Fura-2 signals introduces errors into measurement of thrombin-stimulated calcium mobilization in human platelets. Clinica Chimica Acta. 1997; 265:247-261). Human PRP was incubated with 5 μM Fura-2 AM (Sigma) for 60 minutes at 37° C. After 2 washes with the wash buffer, the platelets were resuspended at 2×10^6 cells/mL with the Tyrode's-HEPES buffer. After incubating with various concentrations of compound for 5 minutes, the platelets were stimulated with collagen (5 μg/mL)(the concentration of collagen was varied in accordance with cell number). The Fura-2 fluorescence was measured for 5 minutes at an excitation wavelength of 340/380 nm and emission wavelength of 500 nm (Yoshida S., Sudo T., Niimi M., Tao L., Sun B., Kambayashi J., Watanabe H., Luo E., and Matsuoka H. Inhibition of collagen-induced platelet aggregation by anopheline antiplatelet protein, a saliva protein from a malaria vector mosquito. Blood 2007; 111: 2007-201) using a fluorescence spectrophotometer (VARIAN, Cary Eclipse).

[5] = male, NZ, rabbit, in vivo, as stated in the summary text, read-out: tmax

Molecule: 1-(4-methylphenylmethyl)-5-oxo-{N-[(3-t-butoxycarbonyl-aminomethyl)]-piperidin-1-yl}-pyrrolidine-2-carboxamides [Compound 1]
- Collagen-epinephrine induced thrombosis in mice (duration of effect) (mice [1]): Up to 18 hrs
- Bleeding Time in mice (mice [2]): 2 fold

Molecule: Cc1ccc(CN2C(=O)CC[C@H]2C(=O)N2CCCC(CNC(=O)OC(C)(C)C)C2)cc1 (stereo partly shown) [Compound 1, 1-(4-methylphenylmethyl)-5-oxo-{N-[(3-t-butoxycarbonyl-aminomethyl)]-piperidin-1-yl}-pyrrolidine-2-carboxamides]
- time to occlude the carotid artery (TTO) (rats; rats): failed to exhibit any protection
- AUC (in vivo; male NZ rabbits, oral): 6524.15 ng·h/mL
- Cmax (in vivo; male NZ rabbits, oral): 947.02 ± 237.4 ng/mL
- MRT (in vivo; male NZ rabbits, oral): 16.20 h
- Tmax (in vivo; male NZ rabbits, oral): 0.68 h
- time to occlusion (TTO) (hyperlipidemic hamsters): remained ineffective
- prolongation in bleeding time (mice [2]): approximately 1.5 fold

Molecule: Cc1ccc(CN2C(=O)CC[C@H]2C(=O)N2CCC[C@@H](CNC(=O)OC(C)(C)C)C2)cc1 [Compound 6]
- platelet adhesion (ex vivo) over collagen surface (mouse platelets): dose dependent inhibition
- Collagen-epinephrine induced thrombosis in mice (duration of effect) (mice [1]): >24 h
- collagen induced platelet aggregation (ex vivo) [3]: dose dependent inhibition
- inhibition of Ristocetin induced platelet aggregation [4]: not to exhibit any effect
- Ferric chloride induced thrombosis in rats (rats; Table 2 summary): Protective
- time to occlusion, dose dependence (rats; rats, 10, 30 & 100 μM/kg): dose dependently exhibited prolongation in time to occlusion
- time to occlude the carotid artery (TTO) (rats; rats): significantly prolonged
- prolonged systemic exposure (in vivo; as stated in the summary text): more than 24 hrs
- AUC (in vivo; male NZ rabbits, oral): 874.8 ng·h/mL
- Cmax (in vivo; male NZ rabbits, oral): 149.49 ± 53.12 ng/mL
- MRT (in vivo; male NZ rabbits, oral): 5.25 h
- Tmax (in vivo; male NZ rabbits, oral): 0.75 h
- Tmax (in vivo; [5]): 0.75 ± 0.144 h
- time to occlusion (TTO) (hyperlipidemic hamsters): significantly increased
- Ferric chloride induced thrombosis in hyperlipidemic hamsters (hyperlipidemic hamsters; Table 2 summary): Protective
- prolongation in bleeding time (mice [2]): approximately 1.5 fold
- Bleeding Time in mice (mice [2]): 1.5 fold
- calcium mobilization ([Ca2+]i) during collagen stimulation (human platelets): concentration dependent inhibition

Molecule: Cc1ccc(CN2C(=O)CC[C@H]2C(=O)N2CCC[C@H](CNC(=O)OC(C)(C)C)C2)cc1 [Compound 7, (2S)-1-(4-methylphenylmethyl)-5-oxo-(3R)-{N-[(3-t-butoxycarbonyl-aminomethyl)]-piperidin-1-yl}-pyrrolidine-2-carboxamide]
- Collagen-epinephrine induced thrombosis in mice (duration of effect) (mice [1]): <12 h
- inhibition of Ristocetin induced platelet aggregation [4]: not to exhibit any effect
- AUC (in vivo; male NZ rabbits, oral): 1112.81 ng·h/mL
- Cmax (in vivo; male NZ rabbits, oral): 112.81 ± 169.77 ng/mL and 112.40 ng/mL
- MRT (in vivo; male NZ rabbits, oral): 16.20 h
- Tmax (in vivo; male NZ rabbits, oral): 8.67 h
- Tmax (in vivo; [5]): 8.67 ± 0.66 h
- time to occlusion (TTO) (hyperlipidemic hamsters): remained ineffective
- prolongation in bleeding time (mice [2]): approximately 1.5 fold
- Bleeding Time in mice (mice [2]): 1.5 fold

— patent US9687480B2, “Chiral 1-(4-methylphenylmethyl)-5-oxo-{N-[(3-t-butoxycarbonyl-aminomethyl)]-piperidin-1-yl)-pyrrolidine as inhibitors of collagen induced platelet activation and adhesion” (Council of Scientific & Industrial Research, priority 2011, dated 2017)
